{
  "source": "paper PMC5920098",
  "about": "“Identification of the allosteric P2X7 receptor antagonist [^11C]SMW139 as a PET tracer of microglial activation” (Scientific Reports, 2018)",
  "key": {"mouse P2X7R": {"system": "mouse P2X7R", "parameters": "method as in PMID 28841278", "details": "cited from earlier work"}, "[1]": {"assay": "Ex vivo metabolite analysis (plasma and brain) in healthy male Wistar rats", "parameters": "species or system rat", "protocol": "(§1) In vivo stability of analogues [^11C]1–3 and [^11C]SMW139 was assessed in healthy male Wistar rats at 15 and 45 minutes after injection of 30–40 MBq of formulated tracer. […] Results obtained in plasma correspond with previously reported stability results in rat liver microsomes. A higher level of intact tracer was found in brain (Table 3) for [^11C]1 and [^11C]SMW139 compared with [^11C]2 and [^11C]3. Despite optimisation of the extraction method, the percentage of total radioactivity that could be extracted from brain homogenates was not optimal for all four compounds (59 ± 6% for [^11C]1; 58 ± 7% for [^11C]2; 61 ± 4% for [^11C]3; 62 ± 3% for [^11C]SMW139). Therefore, based on its highest stability in plasma in vivo, [^11C]SMW139 was selected for further in vivo studies. As imaging studies were performed in female rats, plasma metabolites were also determined in two female rats, and no differences were found between plasma metabolism of [^11C]SMW139 in male and female rats (Table S1; Supplementary Information).\nFor each of the carbon-11 labelled benzamide analogues [^11C]1–3 and [^11C]SMW139, a biodistribution study and metabolite analysis in healthy male Wistar rats was performed, as described in detail in the Supplementary Information. Briefly, tracer distribution in blood, brain, and peripheral organs was measured at 5, 15, 30 and 45 min after intravenous injection of 13–23 MBq of formulated tracer. Metabolite analysis was performed at 15 and 45 min after intravenous injection of 30–40 MBq of formulated tracer in both blood plasma and brain. […]\n(§2) Ex vivo metabolite analysis\n(§3) Healthy male and female Wistar rats (254-440 g) were injected with 30-40 MBq (at start of experiment) of formulated tracer in the tail vein under isoflurane anaesthesia. Rats were sacrificed at 15 and 45 min (n = 3 per time point). Blood samples were obtained and the brain was excised. Blood samples were collected in heparin tubes (BD Vacutainer NH 119 I.U., 7 mL, BD Vacutainer Systems, Plymouth, UK) and centrifuged at 4,000 rpm for 5 min at 4 °C (Hettich Universal 32, Andreas Hettich GmbH & Co.KG, Tuttlingen, Germany). Plasma supernatant was separated from blood cells and loaded onto a tC18 Sep-Pak (Waters, Milford, MA, USA), followed by washing with 3 mL of water to obtain the polar fraction. The non-polar fraction was then eluted with 2 mL of MeOH and 1 mL of water and further analysed by HPLC. The brain was put in a falcon tube containing 4 mL MeCN/H2O (50:50 v/v) and homogenised with a disperser (IKA T18 B Ultra-Turrax, IKA®-Werke GmbH & Co.KG, Staufen, Germany) before centrifugation (5 min, 4,000 rpm, 20 °C, Hettich Universal 32). Supernatant was separated from brain precipitate and analysed by HPLC. Analytical HPLC was performed with Dionex (Sunnyvale, CA, USA) UltiMate 3000 HPLC equipment with Chromeleon software (version 6.8) on a Gemini C18 5-µm (10 x 250 mm) column (Phenomenex, Torrance, CA, USA) with gradient and a mixture of MeCN (A) and 0.1% DIPA in water (B) as eluent according to the following scheme: 0 min, […]\n(§4) 0.25 mL·min-1. All separate fractions were counted for radioactivity in a Wizard Gammacounter 1470 or 2480 (Wallac/PerkinElmer, Waltham, MA, USA)."}, "[2]": {"assay": "Plasma metabolite analysis in female rAAV-hP2X7R rats", "type": "in vivo", "details": "female rat", "protocol": "as §1, with “Information). […]” for “Information).”\nas §2, §3, §4\nTable S1: Metabolic profile of [11C]SMW139 in female rAAV-hP2X7R rats. […]"}, "[3]": {"assay": "LogDoct,7.4 by shake-flask method (1-octanol / 0.2 M phosphate buffer pH 7.4)", "type": "physicochemical", "details": "mean ± SD, read-out: LogDoct,7.4 (n = 3)", "protocol": "The LogDoct,7.4 of analogues [^11C]1–3 and [^11C]SMW139 ([^11C]4) was determined using the shake-flask method (partitioning between 1-octanol and 0.2 M phosphate buffer (pH 7.4)). Determined LogDoct,7.4 values (Table 1) show the same trend as LogD values reported by Wilkinson et al.[10].\nLogDoct,7.4 of [^11C]1–3 and [^11C]SMW139 was determined by the shake-flask method as described in the Supplementary Information.\nAnalytical HPLC chromatogram of [11C]SMW139 formulation (Platinum C18, MeCN/H2O/TFA 45:55:0.1, 1 […]\nDetermination of LogDoct,7.4\nThe distribution of radiolabelled compound between 1-octanol and 0.2 M phosphate buffer (pH = 7.4) was measured at room temperature. Briefly, 1 mL of a 20 MBq·mL-1 solution of radiolabelled compound in 0.2 M phosphate buffer (pH = 7.4) was mixed with 1 mL of 1-octanol for 1 min using a vortex mixer. After a settling period of 30 min, three samples of 100 μL were taken from both layers.\nAll samples were counted for radioactivity in a Wallac Universal Gammacounter 1282 (PerkinElmer, Waltham, MA, USA). The LogDoct,7.4 value was calculated according to LogDoct,7.4 = 10Log(Aoct/Abuffer), where Aoct and Abuffer represent average radioactivity counts of the three 1-octanol and the three […]\n(1 picture or pasted object on this page, not shown here)"}},
  "note": "Where “and” joins values, the source holds several entries; their conditions need not be identical. Identical values can stand only once.",
  "data": [
    {"smiles": "[11CH3]Oc1ccc(Cl)c(C(=O)NCC23CC4(F)CC(F)(CC(F)(C4)C2)C3)c1", "note": "[[^11C]SMW139]", "values": [
      {"measurement": "Affinity lower for mouse P2X7R compared with hP2X7R", "setting": "mouse P2X7R", "value": 6, "unit": "fold"},
      {"measurement": "Intact tracer (%)", "setting": "[1]; rat brain, 15 min p.i.", "value": "79 ± 1", "unit": "%"},
      {"measurement": "Intact tracer (%)", "setting": "[1]; rat brain, 45 min p.i.", "value": "66 ± 2", "unit": "%"},
      {"measurement": "Intact tracer (%)", "setting": "[1]; rat plasma, 15 min p.i., male Wistar rats", "value": "60 ± 1", "unit": "%"},
      {"measurement": "Intact tracer (%)", "setting": "[1]; rat plasma, 45 min p.i., male Wistar rats", "value": "42% and 42 ± 2%"},
      {"measurement": "Intact tracer (%)", "setting": "[2]; Rat 1, 15 min", "value": 78, "unit": "%"},
      {"measurement": "Intact tracer (%)", "setting": "[2]; Rat 1, 45 min", "value": 50, "unit": "%"},
      {"measurement": "Intact tracer (%)", "setting": "[2]; Rat 2, 15 min", "value": 63, "unit": "%"},
      {"measurement": "Intact tracer (%)", "setting": "[2]; Rat 2, 45 min", "value": 32, "unit": "%"},
      {"measurement": "logD", "setting": "[3]", "value": "2.7 ± 0.01"}
    ]}
  ]
}
